# Measurements published in EP1891957A1 (Sloan-Kettering Institute for Cancer Research, priority 1996, dated 1998).
# Values joined by “and” are separate entries in the source; they are usually repeats but may differ in a detail not shown here. Equal entries are not always repeated. Where two headings read alike, the source gives them in different places.
# How the values were obtained:
# human LX-1 lung cancer = details: LX-1 xenograft, schedule and doses as Example 2; for Average Tumor Diameter (mm): nude mice
# [1] = tested on: human MX-1 mammary carcinoma; assay: Xenografts of human MX-1 mammary carcinoma in nude mice; details: MX-1 xenograft; for Average Tumor Diameter (mm): nude mice, once a day for five days starting three days after implantation, 10-propargyl-10dAM 3 mg/kg, MTX 2 mg/kg, EDX 1.5 mg/kg, measured 14 days after start of treatment; for Complete Regressions: mice with no measurable tumor 14 days after start of treatment / mice treated; for Complete Regressions / Cures: same doses; for Cures: tumor free mice three weeks after cessation of therapy / mice treated
# human A549 lung cancer = details: A549 xenograft, schedule and doses as Example 2; for Average Tumor Diameter (mm): nude mice
# Description: Example 2 was repeated using xenografts of human A549 lung cancer in nude mice.
# in vivo [2] = details: rat, iv
# in vivo [3] = details: dog, iv
# [4] = dogs, 3 mg/kg i.v.
# SKLC-16 = assay: Cytotoxicity, 3 hour pulse-exposure, SKLC-16; details: Homo sapiens
# ZR-75-1 = assay: Cytotoxicity, 3 hour pulse-exposure, ZR-75-1; details: Homo sapiens, ZR-75-1, 3 h
# SK-BRIII = assay: Cytotoxicity, 3 hour pulse-exposure, SK-BRIII; details: Homo sapiens
# MDA468 = assay: Cytotoxicity, 3 hour pulse-exposure, MDA468; details: Homo sapiens
smiles,measurement,setting,value
"CN(Cc1cnc2nc(N)nc(N)c2n1)c1ccc(C(=O)N[C@@H](CCC(=O)O)C(=O)O)cc1 [MTX, methotrexate]",Average Tumor Diameter (mm),human LX-1 lung cancer,9.2 ± 2 mm
same,Complete Regressions,human LX-1 lung cancer,0/10
same,Cures,human LX-1 lung cancer,0/10
same,Average Tumor Diameter (mm),[1],7.6 ± 0.8 mm
same,Complete Regressions,[1],no regressions and 0/10
same,Cures,[1],0/10
same,Average Tumor Diameter (mm),human A549 lung cancer,8.3 ± 2 mm
same,Complete Regressions,human A549 lung cancer,0/5
same,Cures,human A549 lung cancer,0/5
"C#CCC(Cc1cnc2nc(N)nc(N)c2n1)c1ccc(C(=O)N[C@@H](CCC(=O)O)C(=O)O)cc1 (stereo partly drawn) [10-propargyl-10dAM, 10-Propargyl-10-deazaaminopterin]",LD50,in vivo [2],~110 mg/kg
same,animals died,"CD rats; 100 mg/kg i.v. QWX3, by day 23",one out of the five
same,rats died,"CD rats; 150 mg/kg i.v. QWX3, days 18, 20 and 23",three out of the five
same,rats died,"CD rats; 200 mg/kg i.v. QWX3, days 12, 14, 15, 20 and 20",all five
same,rats died,"CD rats; 300 mg/kg i.v. QWX3, days 11, 11, 12, 12 and 14",all five
same,LD10,"CD rats; i.v. QWX3, conservative estimate, median-effect plot",about 75 mg/kg
same,LD50,in vivo [3],~8 mg/kg
same,mice died,"B6D2F1 mice; 400 mg/kg i.p. QWX3, days 19, 20, 23 and 24",four out of five
same,mice died,"B6D2F1 mice; 600 mg/kg i.p. QWX3, days 9, 18, 19 and 21",four out of five
same,metabolite (retention time 6.3 min) as part of the total urinary 10-propargyl-10dAM,[4]; urine at 1 hr,< 0.31%
same,metabolite (retention time 6.3 min) as part of the total urinary 10-propargyl-10dAM,[4]; urine at 4 hr,< 3.5%
"CCC(Cc1cnc2nc(N)nc(N)c2n1)c1ccc(C(=O)N[C@@H](CCC(=O)O)C(=O)O)cc1 (stereo partly drawn) [EDX, edatrexate]",Average Tumor Diameter (mm),human LX-1 lung cancer,4.3 ± 2 mm
same,Complete Regressions,human LX-1 lung cancer,3/10
same,Cures,human LX-1 lung cancer,1/10
same,IC50,SKLC-16,0.26 ± 0.03 µM
same,Average Tumor Diameter (mm),[1],2.2 ± 1.1 mm
same,Complete Regressions,[1],6/20
same,Cures,[1],2/20
same,IC50,ZR-75-1,0.86 ± 0.1 µM
same,Average Tumor Diameter (mm),human A549 lung cancer,6.8 ± 2 mm
same,Complete Regressions,human A549 lung cancer,0/5
same,Cures,human A549 lung cancer,0/5
same,IC50,SK-BRIII,0.99 ± 0.15 µM
same,IC50,MDA468,0.38 ± 0.05 µM
